These results are taken from patent publication US20060127432A1, “Surface treatment for wood and wood products” (priority 2002, published 2006).

Marks after values point to notes of the source that are not given here.

For data set [1], the system named is termites. Briefly: Simulated house frames exposed to 120,000 termites. It is filed as in vivo. As to conditions: superficial treatment, ends not treated; six months of exposure, 120,000 termites. The text has this:
The ends of the samples were not treated. Simulated frames were exposed to 120,000 termites.

Data set [2] in a line: Degradation on exposure to temperature and UV light. The format is physicochemical. From the text: (§1) Until this invention, adequately protecting timber against termite attack required a treatment which provided significant penetration of the sapwood. This was the case due to the fact that other available active ingredients degraded very quickly when exposed to increased temperature and Ultra Violet (UV) light. The penetration was required to protect the active ingredient (“active”) from the degradation. The most common used active in the 1990's which penetrated the timber was Permethrin. […] Thus, when using Permethrin, it was required to penetrate into the timber otherwise the product would degrade and not protect the timber. […] This problem was so severe that it made the use of Deltamethin unviable.
(§2) This increased stability together with the repellent effects of Bifenthrin combined to allow only a superficial treating of the timber where the need for significant penetration is not required.

In data set [3] the test system is Mastotermes darwiniensis. Briefly: Timber protection using standard practice in the timber industry. The format is in vivo. From the text: (§3) The rates are 5 and 20 g/m3 respectively.
Data set [4] has as its system Coptotermes acinaciformis. The description is as above. The format is in vivo.
From the text: as §3

The test system of data set [5] is workers who handled the treated timber. Description: OH&S testing, handling of treated timber. It is filed as in vivo.
From the text: as §1, §2

Data set [6] has as its system Mastotermes darwiniensis. Description: Field drum test (AWPA protocols), treated radiata pine exposed to termites. The format is in vivo. Also on record: Mean score: scale not given here. The settings on record: for Mean score / Pass or Fail: radiata pine, field. As for the experimental part:
(§4) The rates required to achieve protection are 4 and 23 g/m3 applied on the surface of 35×90 mm radiata pine for Coptotermes acinaciformis and Mastotermes darwiniensis respectively. These studies were conducted using the drum test described by the AWPA protocols.

Data set [7] has as its system Coptotermes acinaciformis. Described as above. The format is in vivo. Also on record: key to Mean rating: 1: Sound; 2: Superficial attack-grazing; Penetration - >3 mm in depth; 4: Attack Slight −10-25% mass loss; Attack Moderate 25-50% mass loss; 6: Attack Severe 50-70% mass loss; Attack Destroyed 75-100% mass loss. As to conditions: for Mean rating / Success (Pass or Fail) / Pass or Fail: radiata pine, field. As for the experimental part: as §4
Additives can be incorporated during the application of bifenthrin, for example colors, fire retardants, water repellents and resins.
A modification of superficial treatments is the partial introduction of bifenthrin into the wood. The result of this is an envelope around the cross section of the timber board or wood product or just a partial penetration.

Data set [8] in a line: Bonding to timber. The format is physicochemical. As to conditions: compared with Permethrin. From the text:
(§5) These two attributes of bonding & water insolubility, together with the abovementioned stability when exposed to temperature and UV result in the chemical staying on the timber when exposed to rain, sunlight, temperature or handling. No other chemicals used in the past have such characteristics which would allow a mere superficial treatment.

The nature of data set [9]: Solubility in water. The format is physicochemical.
From the text: as §5

Setting [10] is: 15 g/m^3, superficial treatment.
The mark [11] stands for this setting: 23 g/m^3, superficial treatment.
Where [12] appears, read: 38 g/m^3, superficial treatment.
Setting [13] is: applied on the surface of 35×90 mm radiata pine (dipping or spraying).
Setting [14] is: 4 g/m^3 + water repellents, superficial treatment.
The mark [15] stands for this setting: 8 g/m^3 + water repellents, superficial treatment.
Setting [16] is: 15 g/m^3 + water repellents, superficial treatment.
Where [17] appears, read: 23 g/m^3 + water repellents, superficial treatment.
Setting [18] is: Partial penetration more than 3 mm, 6-12 g/m^3.
Where [19] appears, read: Partial penetration more than 3 mm, 13-20 g/m^3.

Take `Cc1c(COC(=O)[C@@H]2[C@H](/C=C(\Cl)C(F)(F)F)C2(C)C)cccc1-c1ccccc1` (racemic) [Bifenthrin]: in data set [1], the “Attack of simulated frames” value is listed as “the treated frames were not”. In data set [2] (superficially treated timber), the “Degradation through exposure to UV or heat” value is “significant penetration was not required to protect the active against degradation”. Besides, the figures for the “Rate required to protect timber” value in data set [3] and in data set [4] were 20 g/m3 and 5 g/m3, respectively. In addition, in data set [5], the “Skin irritation / parasthesia on exposure to treated timber” value is on record as “does not produce any skin irritation”. For the same molecule, the Mean score is reported as 3.3 in data set [6] (4 g/m^3, superficial treatment); 2.2 in data set [6] (8 g/m^3, superficial treatment); 2.0 in data set [6] (setting [10]); 1.7 in data set [6] (setting [11]); 1.0 in data set [6] (setting [12]). Besides, the “Pass or Fail” value is listed as “Fail” in data set [6] (4 g/m^3, superficial treatment); “Fail” in data set [6] (8 g/m^3, superficial treatment); “Fail” in data set [6] (setting [10]); “Pass” in data set [6] (setting [11]); “Pass” in data set [6] (setting [12]). The “Rate required to achieve protection” value amounted to 23 g/m3 in data set [6] (setting [13]) and 4 g/m3 in data set [7] (setting [13]). The Mean rating in data set [7] (setting [14]) was 1.2; in [7] (setting [15]), 1.3; in data set [7] (setting [16]), 1.2^b; in data set [7] (setting [17]), 1.2; in [7] (setting [18]), 1.0; in data set [7] (setting [19]) it was 1.0. Moreover, the “Success (Pass or Fail)” value in data set [7] (setting [14]), in data set [7] (setting [15]), in data set [7] (setting [16]), in data set [7] (setting [17]), in data set [7] (setting [18]) and in data set [7] (setting [19]) was “Pass” in each case. In data set [7] (addition of water repellents), the “Repellent effect with added water repellents” value is recorded as “did not mask the repellent effect”. For the same molecule, in data set [8], the Bonding co-efficient entry is on record as “significantly greater than that of Permethrin”. Also, the Solubility in water entry in data set [9] is listed as “virtually insoluble in water”.
Turning to `CC1(C)[C@H](C(=O)O[C@H](C#N)c2cccc(Oc3ccccc3)c2)[C@@H]1C=C(Br)Br` [Deltamethrin], in data set [2], the “Resistance to UV light” value is recorded as “degrade rapidly when exposed to UV light”. For the same molecule, the “Skin irritation / parasthesia on exposure to treated timber” value in data set [5] is given as “all workers who handled the treated timber complained of a parasthesia or skin irritation”.
Turning to `CC1(C)C(C=C(Cl)Cl)C1C(=O)OCc1cccc(Oc2ccccc2)c1` (stereo not drawn) [permethrin, Permethrin], in [2], the “Resistance to UV light” value is recorded as “very low resistance to UV light”. In addition, the “Degradation on exposure to temperature” value in data set [2] (heat) is “degrade when exposed to temperatures above 25 degrees centigrade”. Moreover, the Mean score in data set [6] (0.02% m/m permethrin (LOSP)) is listed as 1.8; in [6] (.007% m/m permethrin (LOSP)) it was 2.2; in data set [6] (.013% m/m permethrin (LOSP)), 2.2. The “Pass or Fail” value is on record as “Pass” in data set [6] (0.02% m/m permethrin (LOSP)); “Fail” in data set [6] (.007% m/m permethrin (LOSP)); “Fail” in [6] (.013% m/m permethrin (LOSP)); “Fail” in [7] (0.007% m/m OD permethrin); “Fail” in data set [7] (0.013% m/m OD permethrin); “Pass” in data set [7] (0.02% m/m OD permethrin). The Mean rating in [7] (0.007% m/m OD permethrin) stood at 2; in [7] (0.013% m/m OD permethrin), 1.8; in data set [7] (0.02% m/m OD permethrin), 1.3.
